Numbers after ± are expanded uncertainties.
Assay: wn = mass fraction of the nth substance listed
Conditions: 101 kPa, Liquid; for viscosity: Capillary tube (Ostwald / Ubbelohde) method; for speed of sound: Linear variable-path acoustic interferometer; for mass density: Pycnometric method

OC[C@H]1O[C@@](CO)(O[C@H]2O[C@H](CO)[C@@H](O)[C@H](O)[C@H]2O)[C@@H](O)[C@@H]1O [D-sucrose] + O
Conditions	mass density [kg/m3]	speed of sound [m/s]	viscosity [mPa·s]
293.15 K, w1 = 0.05	1018.91 ± 0.37	1501.4 ± 1.6	1.214 ± 0.026
293.15 K, w1 = 0.1	1039.28 ± 0.41	1522.5 ± 1.6	1.376 ± 0.03
293.15 K, w1 = 0.15	1060.31 ± 0.44	1533.4 ± 1.6	1.609 ± 0.034
293.15 K, w1 = 0.2	1082.73 ± 0.41	1545.2 ± 1.7	1.932 ± 0.041
298.15 K, w1 = 0.05	1017.19 ± 0.38	1516.5 ± 1.6	1.011 ± 0.022
298.15 K, w1 = 0.1	1037.45 ± 0.39	1531.8 ± 1.6	1.183 ± 0.025
298.15 K, w1 = 0.15	1058.49 ± 0.4	1543.6 ± 1.7	1.418 ± 0.03
298.15 K, w1 = 0.2	1080.77 ± 0.42	1555.3 ± 1.7	1.756 ± 0.037
303.15 K, w1 = 0.05	1015.46 ± 0.39	1526.6 ± 1.6	0.9129 ± 0.019
303.15 K, w1 = 0.1	1035.61 ± 0.4	1541.8 ± 1.7	1.061 ± 0.023
303.15 K, w1 = 0.15	1056.67 ± 0.41	1553 ± 1.7	1.252 ± 0.027
303.15 K, w1 = 0.2	1078.8 ± 0.43	1564.6 ± 1.7	1.549 ± 0.033
308.15 K, w1 = 0.05	1013.72 ± 0.4	1537.8 ± 1.7	0.8285 ± 0.018
308.15 K, w1 = 0.1	1033.76 ± 0.41	1551.6 ± 1.7	0.9614 ± 0.02
308.15 K, w1 = 0.15	1054.84 ± 0.42	1562 ± 1.7	1.129 ± 0.024
308.15 K, w1 = 0.2	1076.84 ± 0.43	1575.2 ± 1.7	1.396 ± 0.03
313.15 K, w1 = 0.05	1011.98 ± 0.4	1547.7 ± 1.7	0.7457 ± 0.016
313.15 K, w1 = 0.1	1031.93 ± 0.42	1561.8 ± 1.7	0.8804 ± 0.018
313.15 K, w1 = 0.15	1053.01 ± 0.42	1570.8 ± 1.7	1.025 ± 0.022
313.15 K, w1 = 0.2	1074.88 ± 0.44	1583.9 ± 1.7	1.25 ± 0.026
318.15 K, w1 = 0.05	1010.23 ± 0.41	1557.2 ± 1.7	0.6946 ± 0.015
318.15 K, w1 = 0.1	1030.09 ± 0.39	1570.9 ± 1.7	0.8179 ± 0.017
318.15 K, w1 = 0.15	1051.2 ± 0.41	1579.2 ± 1.7	0.9402 ± 0.02
318.15 K, w1 = 0.2	1072.93 ± 0.45	1592.8 ± 1.7	1.15 ± 0.024

Source: the NIST ThermoML archive (doi:10.1016/j.jct.2012.11.001)
